Results from patent US20260240974A1, “A T[…] VACCINE BASED ON VALIDATED TARGET EPITOPES” (Deutsches Krebsforschungszentrum Stiftung des öffentlichen …, priority 2023, published 2026).
Where two headings read alike, the source gives them in different places.

How the values were obtained:
HPV16-positive cells [1] = experiment: HLA immunoprecipitation and LC-MS of peptides presented by HPV16-positive cells; format: cell-based, human; set-up: key: +: presentation: HLA-presentation of the peptide by HPV16-positive cells shown by MS; details: HLA-presentation by HPV16-positive cells shown by MS
Experimental: HLA immunoprecipitation (IP) was performed according to previously published protocols (Bassani-Sternberg et al., 2016; Chong et al., 2018). Briefly, HPV16+ cells were lysed with a lysis buffer containing 1% N-octyl-β-D glucopyranoside, 0.25% Na-Deoxycholate, protease inhibitor cocktail (Sigma-Aldrich, Mannheim, Germany)/PMSF (Carl Roth, Karlsruhe, Germany) in PBS. After centrifugation at 40,000×g, 4° C., for 30 min. HLA-peptide complexes were immuno-precipitated by incubation with mouse anti-human HLA-A,B,C monoclonal antibody (clone W6/32, Biolegend, San Diego, CA, USA) or in some cases HLA-type-specific antibody (HLA-A2: clone BB7.2, HLA-A3: clone GAP A3, HLA-A11/A24: clone Hb 164, HLA-B7: clone BB7.1) crosslinked to protein G Sepharose beads (Cytiva, Marlborough, MA, USA) or Protein A—Sepharose™ 4B (Invitrogen Corporation, Camarillo, CA, USA) for 4 h at 4° C. under constant mixing on a rotating wheel. Supernatant was discarded after centrifugation at 3200×g, for 3 min at RT. Pelleted HLA-peptide complexes bound to antibody-beads were washed 3 times in each of the following steps: first with ice-cold 20 mM Tris-HCl pH 8 containing 150 mM NaCl followed by the same buffer but with additional […] and finally with 20 mM Tris-HCl alone. Peptides were eluted from antibody-beads bound to HLA by 0.3% TFA. Resulting peptides were desalted by reverse-phase purification using a SepPak 96-well plate (Waters, Milford, MA, USA). Peptides eluted in 28% ACN in 0.1% TFA were dried by vacuum centrifugation (Concentrator plus, Eppendorf, Hamburg, Germany).
The set of predicted target peptides were acquired as stable isotope labelled (SIL) peptides from commercial suppliers (crude synthesis product; isotope purity >99 atom % ^13C and ^15N). First, analysis by direct infusion was performed in order to optimize normalized collision energy (NCE) for each single peptide in a mixture. NCE values were ranging from 4% to 42% and each value, in 2% steps, was measured 4 times for four charge states (1+ to 4+) of each peptide. Orbitrap Exploris 480 (Thermo Fisher Scientific) in targeted MS2 scan (PRM) was operated using 30K resolution at 200 m/z, standard automated gain control (AGC) target, 350 ms maximum injection time (IT), 1 micro scan in centroid data acquisition mode. For all measurements, isolation window was 0.4, 0.7, 1 or 1.5 m/z, depending on the mass of the precursor, as recommended by the manufacturer. Ion chromatograms of all expected transitions were extracted with 12 ppm mass tolerance from the centroided spectra and deconvoluted using purpose-made R scripts. The best NCE value was selected so that the intensity of any 5th most intense transitions is maximized, thereby maximizing the chance of detecting at least 5 transitions. The retention time (RT) for each peptide was determined by LC-MS in DDA mode with an inclusion list of target peptides in all four charge-states. The MS resolution was set to 120K, 3e6 AGC target, 50 ms maximum IT and the LC operated as described below.
For LC-MS, samples were dissolved in 2.5 to 5 μl of 5% ACN in 0.1% TFA with 50 fmol of Peptide Retention Time Calibration (PRTC) Mixture (88321, Pierce™) spiked in, followed by 3 min bath sonication. All samples were analysed by liquid chromatography (U-3000, Thermo Fisher Scientific) coupled to Orbitrap Exploris 480 (Thermo Fisher Scientific). […]

[2] = test system: short-term antigen-specific T cell lines generated from PBMCs; experiment: Interferon-γ ELISpot assay on short-term peptide-specific T cell lines from PBMCs; format: cell-based, human; set-up: key: +: ELISPOT: Immungenicity of the peptide shown by IFN-gamma ELISPOT analysis; details: immunogenicity by IFN-gamma ELISPOT
[3] = test system: short-term antigen-specific T cell lines generated from PBMCs; set-up: key: +: ELISPOT: Immungenicity of the peptide shown by IFN-gamma ELISPOT analysis; details: immunogenicity by IFN-gamma ELISPOT, * data from published resources, cited from earlier work
HPV16-positive cells [4] = test system: HPV16-positive cells; set-up: key: +: presentation: HLA-presentation of the peptide by HPV16-positive cells shown by MS; details: HLA-presentation by HPV16-positive cells shown by MS; * data from published resources; cited from earlier work

Row | Substance | presentation (HPV16-positive cells [1]) | ELISpot [2] | ELISpot [3] | presentation (HPV16-positive cells [4]) | ELISpot ([3]; B07) | ELISpot ([2]; B15)
1 | 3 (TTLEQQYNK; Human papillomavirus 16) [compound 3] | + | + | – | – | – | –
2 | 5 (RPRKLPQL; Human papillomavirus 16) [compound 5] | + | + | – | – | – | –
3 | 1 (ISEYRHYCY; Human papillomavirus 16) [compound 1] | + | – | +* | – | – | –
4 | 2 (YMLDLQPET; Human papillomavirus 16) [compound 2] | – | – | +* | +* | – | –
5 | 6 (LQPETTDLY; Human papillomavirus 16) [compound 6] | + | – | +* | – | – | –
6 | 4 (RAHYNIVTF; Human papillomavirus 16) [compound 4] | + | – | – | – | +*(B07) | +(B15)
